Patent publication US20090176839A1, “FORMULATIONS OF 3-(6-(1-(2,2-DIFLUOROBENZO[D][1,3]DIOXOL-5-YL) CYCLOPROPANECARBOXAMIDO)-3-METHYLPYRIDIN-2-YL)BENZOIC ACID” (priority 2007, published 2009)
Read-outs that look alike come from different tables or passages of the source.

Key:
[1] = Pharmacokinetics in CD-1 mice; assay type: in vivo; details: mouse
Protocol: The pharmacokinetics of Compound 1 were assessed in the same species used in the toxicology studies: CD-1 mice, Sprague Dawley rats and beagle dogs. The pharmacokinetics of Compound 1 were also assessed in cynomolgus monkeys.

hERG = hERG (Homo sapiens, UniProt Q12809); experiment: hERG channel competitive binding (3H-astemizole); details: probe 3H-astemizole
Chain of hERG (Q12809 whole entry): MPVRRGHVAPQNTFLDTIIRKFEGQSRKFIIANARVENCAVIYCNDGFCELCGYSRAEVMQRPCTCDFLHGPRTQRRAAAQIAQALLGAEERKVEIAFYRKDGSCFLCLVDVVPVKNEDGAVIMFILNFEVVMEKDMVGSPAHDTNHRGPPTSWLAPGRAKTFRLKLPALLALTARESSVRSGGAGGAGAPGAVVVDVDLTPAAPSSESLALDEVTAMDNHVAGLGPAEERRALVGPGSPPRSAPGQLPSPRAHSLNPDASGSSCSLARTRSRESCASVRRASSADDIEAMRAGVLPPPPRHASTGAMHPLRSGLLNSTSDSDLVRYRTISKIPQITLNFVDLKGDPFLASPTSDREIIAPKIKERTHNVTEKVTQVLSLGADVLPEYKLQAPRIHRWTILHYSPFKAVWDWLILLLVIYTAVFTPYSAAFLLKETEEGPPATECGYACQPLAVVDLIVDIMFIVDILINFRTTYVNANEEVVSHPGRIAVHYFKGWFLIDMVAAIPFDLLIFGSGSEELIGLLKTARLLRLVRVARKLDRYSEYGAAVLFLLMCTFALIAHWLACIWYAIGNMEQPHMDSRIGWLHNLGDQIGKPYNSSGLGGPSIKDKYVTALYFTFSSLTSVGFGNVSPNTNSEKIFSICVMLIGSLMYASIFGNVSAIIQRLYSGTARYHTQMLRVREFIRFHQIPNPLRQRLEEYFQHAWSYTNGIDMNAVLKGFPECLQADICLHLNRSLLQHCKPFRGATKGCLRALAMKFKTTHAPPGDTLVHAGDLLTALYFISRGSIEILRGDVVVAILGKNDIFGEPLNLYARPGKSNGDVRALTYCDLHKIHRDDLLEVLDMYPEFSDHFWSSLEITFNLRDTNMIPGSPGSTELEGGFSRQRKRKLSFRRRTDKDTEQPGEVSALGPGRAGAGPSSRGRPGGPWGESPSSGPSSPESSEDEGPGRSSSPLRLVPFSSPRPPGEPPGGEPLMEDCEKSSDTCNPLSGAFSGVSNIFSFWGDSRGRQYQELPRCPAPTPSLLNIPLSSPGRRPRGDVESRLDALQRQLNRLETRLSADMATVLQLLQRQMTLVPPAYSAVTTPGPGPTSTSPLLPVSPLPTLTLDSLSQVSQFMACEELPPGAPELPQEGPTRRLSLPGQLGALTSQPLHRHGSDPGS

[2] = Tissue distribution in male rats after single oral dose of 75 mg/kg; assay type: in vivo, male Sprague Dawley rats; details: 75 mg/kg oral; for Kp at 1 h / Kp at 4 hr / Kp at 12 hr / Kp / Kp at 48 hr: po, 75 mg/kg
Protocol: Following a single oral administration of unlabelled Compound 1 to rats, the highest distribution was to the liver followed by lung, pancreas and brain with tissue-to-plasma ratios of 0.73, 0.19, 0.13 and 0.02, respectively, at one hour following oral administration of 75 mg/kg. Elimination of Compound 1 was nearly complete from all tissues 48 hours after administration (concentrations less than 1 μg/mL). Although the distribution to the lung is low relative to plasma, the concentrations measured in lung at low and moderate doses are predicted to be efficacious.

in vivo [3] = details: rat, po
Protocol: Repeat-dose oral toxicity studies of 7- and 14-days duration have been conducted in rats (up to 600 mg/kg/day) and dogs (up to 200 mg/kg/day).

in vivo [4] = details: male, beagle, dog, 200 mg/kg
[5] = Sprague Dawley, rat, male rats, Brain
[6] = Sprague Dawley, rat, male rats, Liver
[7] = Sprague Dawley, rat, male rats, Lung
[8] = Sprague Dawley, rat, male rats, Pancreas
[9] = Sprague Dawley, rat, male rats, Plasma

In the case of `Cc1ccc(NC(=O)C2(c3ccc4c(c3)OC(F)(F)O4)CC2)nc1-c1cccc(C(=O)O)c1` [Compound 1, 3-(6-(1-(2,2-difluorobenzo[d][1,3]dioxol-5-yl)cyclopropanecarboxamido)-3-methylpyridin-2-yl)benzoic acid], the clearance [1] is reported as “very low clearance”, the inhibition at 10 µM (hERG) is reported as 4% and the Cmax [2, 5] is reported as 957 ng/mL. It also gave a Tmax [2, 5] of 4 h, an AUC ([2]; Sprague Dawley, rat, male rats, Brain, footnote a: AUCall) of 9.3 µg·h/mL and a concentration at 12 hr ([2]; Sprague Dawley, rat, male rats, Brain, read-out: Clast) of 546 ng/mL. It also gave an AUC(0-inf) [2, 6] of 885 µg·h/mL, a Cmax [2, 6] of 38100 ng/mL and a Tmax [2, 6] of 4 h. It also gave a half-life [2, 6] of 8.06 h, a concentration at 48 hr ([2]; Sprague Dawley, rat, male rats, Liver, read-out: Clast) of 965 ng/mL and an AUC(0-inf) [2, 7] of 187 µg·h/mL. For the same compound, the Cmax [2, 7] was 9140 ng/mL, the Tmax [2, 7] was 1 h and the half-life [2, 7] was 7.79 h. The concentration at 48 hr ([2]; Sprague Dawley, rat, male rats, Lung, read-out: Clast) was 189 ng/mL, the AUC(0-inf) [2, 8] was 132 µg·h/mL and the Cmax [2, 8] was 6830 ng/mL. For the same compound, the Tmax [2, 8] was 4 h, the half-life [2, 8] was 6.87 h and the concentration at 48 hr ([2]; Sprague Dawley, rat, male rats, Pancreas, read-out: Clast) was 86 ng/mL. It also gave an AUC(0-inf) [2, 9] of 980 µg·h/mL, a Cmax [2, 9] of 59100 ng/mL and a Tmax [2, 9] of 4 h. For the same compound, the half-life [2, 9] was 6.15 h, the concentration at 48 hr ([2]; Sprague Dawley, rat, male rats, Plasma, read-out: Clast) was 542 ng/mL and the “Tissue Concentrations, Brain” value ([2]; male rats, 1 hr) was 0.93 μg/mL or μg/g. For the same compound, the “Tissue Concentrations, Liver” value ([2]; male rats, 1 hr) was 34.7 μg/mL or μg/g, the “Tissue Concentrations, Lung” value ([2]; male rats, 1 hr) was 9.14 μg/mL or μg/g and the “Tissue Concentrations, Pancreas” value ([2]; male rats, 1 hr) was 6.03 μg/mL or μg/g. For the same compound, the “Tissue Concentrations, Plasma” value ([2]; male rats, 1 hr) was 47.3 μg/mL or μg/g, the “Tissue Concentrations, Brain” value ([2]; male rats, 4 hr) was 0.96 μg/mL or μg/g and the “Tissue Concentrations, Liver” value ([2]; male rats, 4 hr) was 38.1 μg/mL or μg/g. The “Tissue Concentrations, Lung” value ([2]; male rats, 4 hr) was 8.99 μg/mL or μg/g, the “Tissue Concentrations, Pancreas” value ([2]; male rats, 4 hr) was 6.83 μg/mL or μg/g and the “Tissue Concentrations, Plasma” value ([2]; male rats, 4 hr) was 59.1 μg/mL or μg/g. The “Tissue Concentrations, Brain” value ([2]; male rats, 12 hr) was 0.55 μg/mL or μg/g, the “Tissue Concentrations, Liver” value ([2]; male rats, 12 hr) was 26.3 μg/mL or μg/g and the “Tissue Concentrations, Lung” value ([2]; male rats, 12 hr) was 5.17 μg/mL or μg/g. For the same compound, the “Tissue Concentrations, Pancreas” value ([2]; male rats, 12 hr) was 3.65 μg/mL or μg/g, the “Tissue Concentrations, Plasma” value ([2]; male rats, 12 hr) was 24.8 μg/mL or μg/g and the “Tissue Concentrations, Brain” value ([2]; male rats, 48 hr) was “BLQ”. For the same compound, the “Tissue Concentrations, Liver” value ([2]; male rats, 48 hr) was 0.97 μg/mL or μg/g, the “Tissue Concentrations, Lung” value ([2]; male rats, 48 hr) was 0.19 μg/mL or μg/g and the “Tissue Concentrations, Pancreas” value ([2]; male rats, 48 hr) was 0.09 μg/mL or μg/g. For the same compound, the “Tissue Concentrations, Plasma” value ([2]; male rats, 48 hr) was 0.54 μg/mL or μg/g, the tlast ([2]; male rats, Brain) was 12 h and the tlast ([2]; male rats, Liver) was 48 h. For the same compound, the tlast ([2]; male rats, Lung) was 48 h, the tlast ([2]; male rats, Pancreas) was 48 h and the tlast ([2]; male rats, Plasma) was 48 h. For the same compound, the concentration at 48 h ([2]; male, Sprague Dawley, rat, all tissues (liver, lung, pancreas, brain), rats, 48 hours after administration, read-out: concentrations in all tissues) was under 1000 ng/mL, the Kp at 1 h ([2]; male, Sprague Dawley, rat, brain, male rats, 1 hr, read-out: Tissue/Plasma Ratio, Brain) was 0.02 and the Kp at 4 hr ([2]; male, Sprague Dawley, rat, brain, male rats, 4 hr, read-out: Tissue/Plasma Ratio, Brain) was 0.02. It also gave a Kp at 12 hr ([2]; male, Sprague Dawley, rat, brain, male rats, 12 hr, read-out: Tissue/Plasma Ratio, Brain) of 0.02, a Kp ([2]; male, Sprague Dawley, rat, brain, male rats, Brain, read-out: Cmax Ratio (Tissue/Plasma)) of 0.02 and a Kp ([2]; male, Sprague Dawley, rat, brain, rats, 1 to 48 hours after administration, read-out: tissue-to-plasma concentration ratios, brain) of 0.02. It also gave a Kp at 1 h ([2]; male, Sprague Dawley, rat, liver, male rats, 1 hr, read-out: Tissue/Plasma Ratio, Liver) of 0.73, a Kp at 4 hr ([2]; male, Sprague Dawley, rat, liver, male rats, 4 hr, read-out: Tissue/Plasma Ratio, Liver) of 0.64 and a Kp at 12 hr ([2]; male, Sprague Dawley, rat, liver, male rats, 12 hr, read-out: Tissue/Plasma Ratio, Liver) of 1.06. For the same compound, the Kp at 48 hr ([2]; male, Sprague Dawley, rat, liver, male rats, 48 hr, read-out: Tissue/Plasma Ratio, Liver) was 1.78, the Kp ([2]; male, Sprague Dawley, rat, liver, male rats, Liver, read-out: Cmax Ratio (Tissue/Plasma)) was 0.64 and the Kp ([2]; male, Sprague Dawley, rat, liver, rats, 1 to 48 hours after administration, read-out: tissue-to-plasma concentration ratios, liver) was 0.7 to 1.8. For the same compound, the Kp at 1 h ([2]; male, Sprague Dawley, rat, lung, male rats, 1 hr, read-out: Tissue/Plasma Ratio, Lung) was 0.19, the Kp at 4 hr ([2]; male, Sprague Dawley, rat, lung, male rats, 4 hr, read-out: Tissue/Plasma Ratio, Lung) was 0.15 and the Kp at 12 hr ([2]; male, Sprague Dawley, rat, lung, male rats, 12 hr, read-out: Tissue/Plasma Ratio, Lung) was 0.21. For the same compound, the Kp at 48 hr ([2]; male, Sprague Dawley, rat, lung, male rats, 48 hr, read-out: Tissue/Plasma Ratio, Lung) was 0.35, the Kp ([2]; male, Sprague Dawley, rat, lung, male rats, Lung, read-out: Cmax Ratio (Tissue/Plasma)) was 0.15 and the Kp ([2]; male, Sprague Dawley, rat, lung, rats, 1 to 48 hours after administration, read-out: tissue-to-plasma concentration ratios, lung) was 0.15 to 0.35. The Kp at 1 h ([2]; male, Sprague Dawley, rat, pancreas, male rats, 1 hr, read-out: Tissue/Plasma Ratio, Pancreas) was 0.13, the Kp at 4 hr ([2]; male, Sprague Dawley, rat, pancreas, male rats, 4 hr, read-out: Tissue/Plasma Ratio, Pancreas) was 0.12 and the Kp at 12 hr ([2]; male, Sprague Dawley, rat, pancreas, male rats, 12 hr, read-out: Tissue/Plasma Ratio, Pancreas) was 0.15. For the same compound, the Kp at 48 hr ([2]; male, Sprague Dawley, rat, pancreas, male rats, 48 hr, read-out: Tissue/Plasma Ratio, Pancreas) was 0.15, the Kp ([2]; male, Sprague Dawley, rat, pancreas, male rats, Pancreas, read-out: Cmax Ratio (Tissue/Plasma)) was 0.12 and the Kp ([2]; male, Sprague Dawley, rat, pancreas, rats, 1 to 48 hours after administration, read-out: tissue-to-plasma concentration ratios, pancreas) was 0.12 to 0.15. The NOAEL at 14 days (in vivo [3]) was 600 mg/kg/day, the AUC(0-inf) (in vivo [4]) was 288 µg·h/mL and the Cmax (in vivo [4]) was 52000 ng/mL. For the same compound, the concentration at 48 hr (in vivo [4]) was 63 ng/mL, the Tmax (in vivo [4]; po) was 1.7 h and the half-life (in vivo [4]; po) was 6.1 h.
